Reference: patent US10975064B2, “RIP1 inhibitory compounds and methods for making and using the same” (Rigel Pharmaceuticals, Inc., priority 2018, dated 2021)

Tested on: TNF-alpha induced hypothermia
Experiment: acute hypothermia mouse model
Assay type: in vivo
Conditions: 15 mg/kg, oral gavage, C57BL/6 mice
Method: In this example, an acute hypothermia mouse model assay was used to evaluate the ability of compounds disclosed herein to inhibit TNF-alpha induced hypothermia. Female C57BL/6 mice are randomly grouped and weighed on Day-1. On the day of the study (Day 0), mice are administered vehicle or test article by oral gavage. Fifteen minutes after oral administration of test agents, each mouse is administered an intraperitoneal (IP) injection of solution containing recombinant human tumor necrosis factor alpha (TNF-a, 25.0 μg) and zVAD-FMK (200 μg). Body temperature is measured at hour zero (before IP injections) and every hour via rectal probe temperature measuring device. Three (3) hours after IP injections of TNF-a and zVAD/FMK, mice are euthanized by CO2 asphyxiation and blood is collected via cardiac puncture. Serum and plasma are harvested for determination of cytokine and compound levels, respectively. Separate groups of mice (satellite mice) are included for the determination of compound levels in plasma at the time of administration of TNFa/zVAD-FMK. (S)-5-benzyl-N-(5-methyl-4-oxo-2,3,4,5-tetrahydrobenzo[b][1,4]oxazepin-3-yl)-4H-1,2,4-triazole-3-carboxamide (WO 2014/125444), having a structure as illustrated below, was used as a comparative compound and was examined using the same assay protocol.

CN1C(=O)[C@@H](NC(=O)c2n[nH]c(Cc3ccccc3)n2)COc2ccc(N3CC4(CCOCC4)C3)cc21 [Compound I-5, (S)-5-benzyl-N-(5-methyl-4-oxo-7-(7-oxa-2-azaspiro[3.5]nonan-2-yl)-2,3,4,5-tetrahydrobenzo[b][1,4]oxazepin-3-yl)-1H-1,2,4-triazole-3-carboxamide]
inhibition of TNF-alpha induced hypothermia: 81%
